Test results reported in US20240158418A1 (C4 Therapeutics, Inc., priority 2021, published 2024).

The compounds below were run against T1, EGFR L858R-T790M (Homo sapiens, UniProt P00533, L858R/T790M) (assay: EGFR degradation, Total EGFR (L858R-specific) HTRF, NCI-H1975). Details: Table 9A; NCI-H1975 cells, 6 hours, Total EGFR HTRF; read-out: H1975 EGFR DC50.
T1 construct: NCI-H1975 (harboring EGFR heterozygous L858R-T790M mutations); host or cells: NCI-H1975
Assay type: cell-based
Method in brief: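 HTRF read-outs: pY1068 phospho-EGFR for IC50; total EGFR (pan-EGFR in A431, L858R-specific in mutant lines) for DC50. Compounds were titrated 11 points, half-log, from 10 μM in duplicate onto cells in 10% FBS RPMI, incubated 6 h at 37°C.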

T1 sequence (P00533 25-1210 T790M/L858R): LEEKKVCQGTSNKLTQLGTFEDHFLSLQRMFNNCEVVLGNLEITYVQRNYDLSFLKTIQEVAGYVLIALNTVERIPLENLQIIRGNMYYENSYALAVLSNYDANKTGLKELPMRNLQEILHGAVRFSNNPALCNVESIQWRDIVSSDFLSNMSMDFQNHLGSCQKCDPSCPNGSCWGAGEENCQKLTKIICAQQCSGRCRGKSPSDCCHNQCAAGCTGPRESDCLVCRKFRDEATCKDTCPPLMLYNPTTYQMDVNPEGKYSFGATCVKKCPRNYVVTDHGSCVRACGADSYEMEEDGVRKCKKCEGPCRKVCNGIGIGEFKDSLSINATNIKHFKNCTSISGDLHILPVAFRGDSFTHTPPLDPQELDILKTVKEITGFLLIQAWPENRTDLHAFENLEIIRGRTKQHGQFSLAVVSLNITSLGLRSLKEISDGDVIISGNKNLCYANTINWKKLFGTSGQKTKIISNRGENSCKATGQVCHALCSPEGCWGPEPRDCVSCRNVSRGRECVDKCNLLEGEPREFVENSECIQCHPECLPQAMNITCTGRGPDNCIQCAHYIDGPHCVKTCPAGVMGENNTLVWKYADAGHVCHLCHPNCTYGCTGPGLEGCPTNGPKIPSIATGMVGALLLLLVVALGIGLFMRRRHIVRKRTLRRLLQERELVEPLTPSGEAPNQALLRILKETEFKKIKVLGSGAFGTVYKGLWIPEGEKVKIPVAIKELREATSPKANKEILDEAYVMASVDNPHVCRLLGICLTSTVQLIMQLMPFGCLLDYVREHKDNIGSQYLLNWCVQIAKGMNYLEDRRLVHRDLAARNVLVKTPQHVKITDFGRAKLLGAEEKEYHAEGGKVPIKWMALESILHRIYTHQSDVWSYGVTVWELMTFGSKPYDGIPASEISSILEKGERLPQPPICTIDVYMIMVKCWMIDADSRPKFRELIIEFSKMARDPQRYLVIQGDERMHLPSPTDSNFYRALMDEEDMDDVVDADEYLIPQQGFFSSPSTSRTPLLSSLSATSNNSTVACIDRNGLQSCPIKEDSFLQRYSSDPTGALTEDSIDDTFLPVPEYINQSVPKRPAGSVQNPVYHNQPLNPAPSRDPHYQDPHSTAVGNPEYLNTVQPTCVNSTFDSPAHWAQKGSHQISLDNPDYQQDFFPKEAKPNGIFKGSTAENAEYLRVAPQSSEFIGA

O=C1CC[C@H](Nc2ccc(C3CCN(CC(=O)N4CC[C@H](Oc5ccc(-c6cc(F)c7c(c6)C(=O)N(C(C(=O)Nc6nccs6)c6ncn8c6CCC8)C7)cc5)C4)CC3)cc2)C(=O)N1 (stereo partly drawn) [Compound 42, 2-(6,7-dihydro-5H-pyrrolo[1,2-c]imidazol-1-yl)-2-[6-[4-[(3S)-1-[2-[4-[4-[[(3S)-2,6-dioxo-3-piperidyl]amino]phenyl]-1-piperidyl]acetyl]pyrrolidin-3-yl]oxyphenyl]-4-fluoro-1-oxo-isoindolin-2-yl]-N-thiazol-2-yl-acetamide] and O=C1CCC(Nc2ccc(C3CCN(CC(=O)N4CCC(Oc5ccc(-c6cc(F)c7c(c6)C(=O)N(C(C(=O)Nc6nccs6)c6ncn8c6CCC8)C7)cc5)CC4)CC3)cc2)C(=O)N1 (centres unmarked) [Compound 31, 2-(6,7-dihydro-5H-pyrrolo[1,2-c]imidazol-1-yl)-2-[6-[4-[[1-[2-[4-[4-[(2,6-dioxo-3-piperidyl)amino]phenyl]-1-piperidyl]acetyl]-4-piperidyl]oxy]phenyl]-4-fluoro-1-oxo-isoindolin-2-yl]-N-thiazol-2-yl-acetamide] cannot be ordered by DC50: less than 50 nM for the first, less than 50 nM for the second.

Same assay, conditions: Table 9B; NCI-H1975 cells, 6 hours, Total EGFR HTRF; read-out: H1975 EGFR DC50

Cn1nc(N2CCC(=O)NC2=O)c2ccc(C3CCN(C(=O)C4CC5(C4)CN(c4ccc(-c6cc(F)c7c(c6)C(=O)N(C(C(=O)Nc6nccs6)c6ncn8c6CCC8)C7)cc4)C5)CC3(F)F)cc21 (centres unmarked) [Compound 155, 2-(6,7-dihydro-5H-pyrrolo[1,2-c]imidazol-1-yl)-2-[6-[4-[6-[4-[3-(2,4-dioxohexahydropyrimidin-1-yl)-1-methyl-indazol-6-yl]-3,3-difluoro-piperidine-1-carbonyl]-2-azaspiro[3.3]heptan-2-yl]phenyl]-4-fluoro-1-oxo-isoindolin-2-yl]-N-thiazol-2-yl-acetamide] and Cn1nc(N2CCC(=O)NC2=O)c2ccc(C3CCN(C(=O)CC4CC5(C4)CN(c4ccc(-c6cc(F)c7c(c6)C(=O)N(C(C(=O)Nc6nccs6)c6ncn8c6CCC8)C7)cc4)C5)CC3(F)F)cc21 (centres unmarked) [Compound 102, 2-(6,7-dihydro-5H-pyrrolo[1,2-c]imidazol-1-yl)-2-(6-(4-(6-(2-(4-(3-(2,4-dioxotetrahydropyrimidin-1(2H)-yl)-1-methyl-1H-indazol-6-yl)-3,3-difluoropiperidin-1-yl)-2-oxoethyl)-2-azaspiro[3.3]heptan-2-yl)phenyl)-4-fluoro-1-oxoisoindolin-2-yl)-N-(thiazol-2-yl)acetamide] cannot be ordered by DC50: less than 50 nM for the first, less than 50 nM for the second.

O=C1CCC(Nc2ccc(N3CCC(O)(CC(=O)N4CCC5(CC4)CN(c4ccc(-c6cc(F)c7c(c6)C(=O)N(C(C(=O)Nc6nccs6)c6ncn8c6CCC8)C7)cc4)C5)CC3)c(Cl)c2)C(=O)N1 (single isomer, unassigned; isomer 1) [Compound 138, 2-[6-[4-[7-[2-[1-[2-chloro-4-[[2,6-dioxo-3-piperidyl]amino]phenyl]-4-hydroxy-4-piperidyl]acetyl]-2,7-diazaspiro[3.5]nonan-2-yl]phenyl]-4-fluoro-1-oxo-isoindolin-2-yl]-2-(6,7-dihydro-5H-pyrrolo[1,2-c]imidazol-1-yl)-N-thiazol-2-yl-acetamide, isomer 1] and O=C1CCC(Nc2ccc(N3CCC(O)(CC(=O)N4CC5(CCN(c6ccc(-c7cc(F)c8c(c7)C(=O)N(C(C(=O)Nc7nccs7)c7ncn9c7CCC9)C8)cc6)CC5)C4)CC3)c(F)c2)C(=O)N1 (centres unmarked) [Compound 107, 2-(6,7-dihydro-5H-pyrrolo[1,2-c]imidazol-1-yl)-2-(6-(4-(2-(2-(1-(4-((2,6-dioxopiperidin-3-yl)amino)-2-fluorophenyl)-4-hydroxypiperidin-4-yl)acetyl)-2,7-diazaspiro[3.5]nonan-7-yl)phenyl)-4-fluoro-1-oxoisoindolin-2-yl)-N-(thiazol-2-yl)acetamide] cannot be ordered by DC50: less than 50 nM for the first, less than 50 nM for the second.

Going from O=C1CCN(c2cc(Cl)c(N3CCC(O)(CC(=O)N4CC5(C4)CN(c4ccc(-c6cc(F)c7c(c6)C(=O)N(C(C(=O)Nc6nccs6)c6ncn8c6CCC8)C7)cc4)C5)CC3)c(Cl)c2)C(=O)N1 (centres unmarked) [Compound 169, 2-[6-[4-[2-[2-[1-[2,6-dichloro-4-(2,4-dioxohexahydropyrimidin-1-yl)phenyl]-4-hydroxy-4-piperidyl]acetyl]-2,6-diazaspiro[3.3]heptan-6-yl]phenyl]-4-fluoro-1-oxo-isoindolin-2-yl]-2-(6,7-dihydro-5H-pyrrolo[1,2-c]imidazol-1-yl)-N-thiazol-2-yl-acetamide] to N#Cc1cc(N2CCC(=O)NC2=O)ccc1N1CCC(O)(CC(=O)N2CC3(C2)CN(c2ccc(-c4cc(F)c5c(c4)C(=O)N(C(C(=O)Nc4nccs4)c4ncn6c4CCC6)C5)cc2)C3)CC1 (centres unmarked) [Compound 171, 2-[6-[4-[2-[2-[1-[2-cyano-4-(2,4-dioxohexahydropyrimidin-1-yl)phenyl]-4-hydroxy-4-piperidyl]acetyl]-2,6-diazaspiro[3.3]heptan-6-yl]phenyl]-4-fluoro-1-oxo-isoindolin-2-yl]-2-(6,7-dihydro-5H-pyrrolo[1,2-c]imidazol-1-yl)-N-thiazol-2-yl-acetamide], the DC50 rises from less than 50 nM to greater than 150 nM.

First: O=C1CCC(Nc2cc(F)c(N3CCC(O)(CC(=O)N4CC5(C4)CN(c4ccc(-c6cc(F)c7c(c6)C(=O)N(C(C(=O)Nc6nccs6)c6ncn8c6CCC8)C7)cc4)C5)CC3)c(Cl)c2)C(=O)N1 (single isomer, unassigned; isomer 1) [Compound 145, 2-[6-[4-[2-[2-[1-[2-chloro-4-[[2,6-dioxo-3-piperidyl]amino]-6-fluoro-phenyl]-4-hydroxy-4-piperidyl]acetyl]-2,6-diazaspiro[3.3]heptan-6-yl]phenyl]-4-fluoro-1-oxo-isoindolin-2-yl]-2-(6,7-dihydro-5H-pyrrolo[1,2-c]imidazol-1-yl)-N-thiazol-2-yl-acetamide, isomer 1]
Second: C[C@@H]1CC(O)(CC(=O)N2CC3(C2)CN(c2ccc(-c4cc(F)c5c(c4)C(=O)N(C(C(=O)Nc4nccs4)c4ncn6c4CCC6)C5)cc2)C3)C[C@H](C)N1c1ccc(NC2CCC(=O)NC2=O)cc1F (some centres unmarked) [Compound 161, 2-(6,7-dihydro-5H-pyrrolo[1,2-c]imidazol-1-yl)-2-[6-[4-[2-[2-[(2s,6r)-1-[4-[(2,6-dioxo-3-piperidyl)amino]-2-fluoro-phenyl]-4-hydroxy-2,6-dimethyl-4-piperidyl]acetyl]-2,6-diazaspiro[3.3]heptan-6-yl]phenyl]-4-fluoro-1-oxo-isoindolin-2-yl]-N-thiazol-2-yl-acetamide]
The DC50 of the first is higher: 50 to 150 nM for the first, less than 50 nM for the second.

Cn1nc(N2CCC(=O)NC2=O)c2cc(F)c(N3CCN(CC(=O)N4CC5(C4)CN(c4ccc(-c6cc(F)c7c(c6)C(=O)N(C(C(=O)Nc6nccs6)c6ncn8c6CCC8)C7)cc4)C5)CC3)cc21 (centres unmarked) [Compound 123, 2-(6,7-dihydro-5H-pyrrolo[1,2-c]imidazol-1-yl)-2-[6-[4-[2-[2-[4-[3-(2,4-dioxohexahydropyrimidin-1-yl)-5-fluoro-1-methyl-indazol-6-yl]piperazin-1-yl]acetyl]-2,6-diazaspiro[3.3]heptan-6-yl]phenyl]-4-fluoro-1-oxo-isoindolin-2-yl]-N-thiazol-2-yl-acetamide] and Cn1nc(N2CCC(=O)NC2=O)c2ccc(C3CCN(CC(=O)N4CCC5(C4)CN(c4ccc(-c6cc(F)c7c(c6)C(=O)N(C(C(=O)Nc6nccs6)c6ncn8c6CCC8)C7)cc4)C5)CC3(F)F)cc21 (centres unmarked) [Compound 113, 2-(6,7-dihydro-5H-pyrrolo[1,2-c]imidazol-1-yl)-2-(6-(4-(6-(2-(4-(3-(2,4-dioxotetrahydropyrimidin-1(2H)-yl)-1-methyl-1H-indazol-6-yl)-3,3-difluoropiperidin-1-yl)acetyl)-2,6-diazaspiro[3.4]octan-2-yl)phenyl)-4-fluoro-1-oxoisoindolin-2-yl)-N-(thiazol-2-yl)acetamide] cannot be ordered by DC50: less than 50 nM for the first, less than 50 nM for the second.

O=C1CCC(Nc2ccc(CC(=O)N3CCC(NC(=O)c4ccc(C#Cc5cc(F)c6c(c5)C(=O)N(C(C(=O)Nc5nccs5)c5ncn7c5CCC7)C6)cn4)CC3)cc2)C(=O)N1 (centres unmarked) [Compound 93, 5-[2-[2-[1-(6,7-dihydro-5H-pyrrolo[1,2-c]imidazol-1-yl)-2-oxo-2-(thiazol-2-ylamino)ethyl]-7-fluoro-3-oxo-isoindolin-5-yl]ethynyl]-N-[1-[2-[4-[(2,6-dioxo-3-piperidyl)amino]phenyl]acetyl]-4-piperidyl]pyridine-2-carboxamide] and Cn1nc(N2CCC(=O)NC2=O)c2ccc([C@H]3CCN(CC(=O)N4CC5(C4)CN(c4ccc(-c6cc(F)c7cn(C(C(=O)Nc8nccs8)c8ncn9c8CCC9)nc7c6)cc4)C5)CC3(F)F)cc21 (stereo partly drawn) [Compound 76, 2-(6,7-dihydro-5H-pyrrolo[1,2-c]imidazol-1-yl)-2-(6-(4-(6-(2-((R)-4-(3-(2,4-dioxotetrahydropyrimidin-1(2H)-yl)-1-methyl-1H-indazol-6-yl)-3,3-difluoropiperidin-1-yl)acetyl)-2,6-diazaspiro[3.3]heptan-2-yl)phenyl)-4-fluoro-2H-indazol-2-yl)-N-(thiazol-2-yl)acetamide] cannot be ordered by DC50: less than 50 nM for the first, less than 50 nM for the second.
